In patent publication US10392391B2 (Vertex Pharmaceuticals Incorporated, priority 2012, dated 2019):

Target: ATR kinase (full-length ATR) (Homo sapiens (Human), UniProt Q13535)
Assay: ATR inhibition assay (radioactive-phosphate incorporation)
Format: biochemical
Conditions: not given
Procedure, shortened: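 Radiometric 33P incorporation by 5 nM full-length ATR into 800 μM target peptide with 10 μM [γ-33P]ATP, in 50 mM Tris/HCl pH 7.5, 10 mM MgCl2, 1 mM DTT, 7% DMSO, 25° C. Compound pre-incubated 10 minutes; reaction stopped after 24 hours, captured on phosphocellulose. Ki(app) from non-linear regression of initial rates.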

ATR kinase (full-length ATR), sequence (Q13535 whole entry): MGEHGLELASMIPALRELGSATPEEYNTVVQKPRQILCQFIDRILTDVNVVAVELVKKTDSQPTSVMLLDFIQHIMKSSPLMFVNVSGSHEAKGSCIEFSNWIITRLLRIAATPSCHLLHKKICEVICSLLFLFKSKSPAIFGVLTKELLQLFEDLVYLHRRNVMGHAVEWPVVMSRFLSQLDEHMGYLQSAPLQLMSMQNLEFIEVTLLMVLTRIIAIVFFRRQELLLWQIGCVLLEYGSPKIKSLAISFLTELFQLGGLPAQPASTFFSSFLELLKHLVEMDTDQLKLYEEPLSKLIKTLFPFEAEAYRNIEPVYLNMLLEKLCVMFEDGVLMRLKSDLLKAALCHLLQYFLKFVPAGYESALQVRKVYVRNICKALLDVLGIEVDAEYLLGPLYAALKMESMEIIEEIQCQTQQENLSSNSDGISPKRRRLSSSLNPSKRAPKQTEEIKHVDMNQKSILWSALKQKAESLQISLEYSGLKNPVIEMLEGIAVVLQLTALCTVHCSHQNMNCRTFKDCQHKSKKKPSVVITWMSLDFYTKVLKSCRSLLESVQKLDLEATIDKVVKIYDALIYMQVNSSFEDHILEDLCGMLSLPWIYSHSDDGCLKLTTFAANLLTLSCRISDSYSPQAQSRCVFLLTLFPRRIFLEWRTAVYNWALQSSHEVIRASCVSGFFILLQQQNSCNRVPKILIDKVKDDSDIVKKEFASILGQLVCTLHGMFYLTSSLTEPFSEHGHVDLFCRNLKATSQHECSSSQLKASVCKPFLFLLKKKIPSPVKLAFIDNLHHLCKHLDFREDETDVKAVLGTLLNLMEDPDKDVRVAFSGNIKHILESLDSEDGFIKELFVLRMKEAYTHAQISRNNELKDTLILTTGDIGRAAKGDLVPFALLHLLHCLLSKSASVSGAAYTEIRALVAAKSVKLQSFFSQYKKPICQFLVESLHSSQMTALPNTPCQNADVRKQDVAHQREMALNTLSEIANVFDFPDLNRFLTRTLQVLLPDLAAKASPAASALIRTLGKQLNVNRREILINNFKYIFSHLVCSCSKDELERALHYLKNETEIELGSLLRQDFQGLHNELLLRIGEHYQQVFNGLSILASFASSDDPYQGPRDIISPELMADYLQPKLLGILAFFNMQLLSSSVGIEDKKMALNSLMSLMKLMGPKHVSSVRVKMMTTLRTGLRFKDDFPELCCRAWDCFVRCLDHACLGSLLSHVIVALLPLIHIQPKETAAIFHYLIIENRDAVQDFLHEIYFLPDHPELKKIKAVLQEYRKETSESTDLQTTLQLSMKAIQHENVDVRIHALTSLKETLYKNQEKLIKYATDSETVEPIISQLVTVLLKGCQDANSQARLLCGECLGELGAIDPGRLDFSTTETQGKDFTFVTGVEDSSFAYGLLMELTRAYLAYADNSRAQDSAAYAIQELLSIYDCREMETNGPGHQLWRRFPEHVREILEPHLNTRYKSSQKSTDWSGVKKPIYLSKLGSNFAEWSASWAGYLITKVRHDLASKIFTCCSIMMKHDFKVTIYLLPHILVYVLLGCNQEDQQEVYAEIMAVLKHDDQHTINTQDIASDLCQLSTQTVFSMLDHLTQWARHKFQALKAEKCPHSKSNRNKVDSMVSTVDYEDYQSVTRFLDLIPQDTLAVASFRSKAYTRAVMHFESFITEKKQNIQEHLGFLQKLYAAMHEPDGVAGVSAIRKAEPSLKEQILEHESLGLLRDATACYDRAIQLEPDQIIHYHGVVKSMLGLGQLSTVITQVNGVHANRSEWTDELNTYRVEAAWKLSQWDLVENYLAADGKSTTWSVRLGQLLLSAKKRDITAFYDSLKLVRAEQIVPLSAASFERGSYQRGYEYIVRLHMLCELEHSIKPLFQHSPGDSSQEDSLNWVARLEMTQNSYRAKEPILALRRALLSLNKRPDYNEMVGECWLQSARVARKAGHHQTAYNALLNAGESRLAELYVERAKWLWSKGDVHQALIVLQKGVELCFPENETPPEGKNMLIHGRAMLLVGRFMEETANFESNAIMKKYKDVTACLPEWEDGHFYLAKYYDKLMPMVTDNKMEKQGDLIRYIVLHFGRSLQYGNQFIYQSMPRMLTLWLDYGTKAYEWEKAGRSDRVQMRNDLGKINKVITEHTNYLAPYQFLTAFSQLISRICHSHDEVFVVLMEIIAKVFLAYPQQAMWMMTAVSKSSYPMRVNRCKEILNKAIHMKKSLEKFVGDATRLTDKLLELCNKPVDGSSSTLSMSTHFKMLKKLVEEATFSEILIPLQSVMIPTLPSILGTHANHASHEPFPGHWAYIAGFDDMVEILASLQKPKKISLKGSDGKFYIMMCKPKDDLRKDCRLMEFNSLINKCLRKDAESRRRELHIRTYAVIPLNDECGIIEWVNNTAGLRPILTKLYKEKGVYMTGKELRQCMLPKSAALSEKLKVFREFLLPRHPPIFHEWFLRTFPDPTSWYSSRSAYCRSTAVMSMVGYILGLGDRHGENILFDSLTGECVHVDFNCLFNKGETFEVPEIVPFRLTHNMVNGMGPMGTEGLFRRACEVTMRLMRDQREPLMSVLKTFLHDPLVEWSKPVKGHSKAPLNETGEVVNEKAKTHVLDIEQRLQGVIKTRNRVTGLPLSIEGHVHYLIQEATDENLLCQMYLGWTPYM

Row | Ki [nM] | Compound
1 | 1000 to 5000 | CN1CCN(C(=O)C2CCCN(c3c(F)cncc3NC(=O)c3c(N)nn4cc(F)cnc34)C2)CC1 (stereo not drawn) [I-N-289, 2-amino-6-fluoro-N-(5-fluoro-4-(3-(4-methylpiperazine-1-carbonyl)piperidin-1-yl)pyridin-3-yl)pyrazolo[1,5-a]pyrimidine-3-carboxamide]

Same assay, conditions: Ki(app), 5 nM full-length ATR, 10 μM ATP, 25° C.

Row | Compound | Ki [nM]
2 | CN(C)C(=O)C1CCCN(c2ccncc2NC(=O)c2c(N)nn3cc(F)cnc23)C1 (stereo not drawn) [I-N-290, 2-amino-N-(4-(3-(dimethylcarbamoyl)piperidin-1-yl)pyridin-3-yl)-6-fluoropyrazolo[1,5-a]pyrimidine-3-carboxamide] | 10 to 1000
3 | CN1CC[C@H](Oc2ccncc2NC(=O)c2c(N)nn3cc(F)cnc23)C1 [I-O-1, (S)-2-amino-6-fluoro-N-(4-((1-methylpyrrolidin-3-yl)oxy)pyridin-3-yl)pyrazolo[1,5-a]pyrimidine-3-carboxamide] | 10 to 1000
4 | CN(C)Cc1ccc(Oc2ccncc2NC(=O)c2c(N)nn3cc(F)cnc23)cn1 [I-O-3, 2-amino-N-(4-((6-((dimethylamino)methyl)pyridin-3-yl)oxy)pyridin-3-yl)-6-fluoropyrazolo[1,5-a]pyrimidine-3-carboxamide] | 10 to 1000
5 | COc1ccncc1NC(=O)c1c(N)nn2cc(F)cnc12 [I-O-4, 2-amino-6-fluoro-N-(4-methoxypyridin-3-yl)pyrazolo[1,5-a]pyrimidine-3-carboxamide] | 10 to 1000
6 | Nc1nn2cc(F)cnc2c1C(=O)Nc1cnccc1O[C@H]1CN2CCC1CC2 [I-O-5, (R)-2-amino-6-fluoro-N-(4-(quinuclidin-3-yloxy)pyridin-3-yl)pyrazolo[1,5-a]pyrimidine-3-carboxamide] | 10 to 1000
7 | Nc1nn2cc(F)cnc2c1C(=O)Nc1cnccc1Oc1cccnc1 [I-O-7, 2-amino-6-fluoro-N-(4-(pyridin-3-yloxy)pyridin-3-yl)pyrazolo[1,5-a]pyrimidine-3-carboxamide] | 10 to 1000
8 | Nc1nn2cc(F)cnc2c1C(=O)Nc1cnccc1OC1CCC(C(=O)O)CC1 (stereo not drawn) [I-O-8, 4-((3-(2-amino-6-fluoropyrazolo[1,5-a]pyrimidine-3-carboxamido)pyridin-4-yl)oxy)cyclohexanecarboxylic acid] | 10 to 1000
9 | Nc1nn2cc(F)cnc2c1C(=O)Nc1cnccc1O[C@H]1CCCN(C2COC2)C1 [I-O-9, (S)-2-amino-6-fluoro-N-(4-((1-(oxetan-3-yl)piperidin-3-yl)oxy)pyridin-3-yl)pyrazolo[1,5-a]pyrimidine-3-carboxamide] | 10 to 1000
10 | Nc1nn2cc(F)cnc2c1C(=O)Nc1cnccc1O[C@@H]1CN2CCC1CC2 [I-O-10, (S)-2-amino-6-fluoro-N-(4-(quinuclidin-3-yloxy)pyridin-3-yl)pyrazolo[1,5-a]pyrimidine-3-carboxamide] | 10 to 1000
11 | Nc1nn2cc(F)cnc2c1C(=O)Nc1cnccc1OC1CCN(C2COC2)CC1 [I-O-11, 2-amino-6-fluoro-N-(4-((1-(oxetan-3-yl)piperidin-4-yl)oxy)pyridin-3-yl)pyrazolo[1,5-a]pyrimidine-3-carboxamide] | 10 to 1000
12 | CN1CCC(Oc2ccncc2NC(=O)c2c(N)nn3cc(F)cnc23)CC1 [I-O-12, 2-amino-6-fluoro-N-(4-((1-methylpiperidin-4-yl)oxy)pyridin-3-yl)pyrazolo[1,5-a]pyrimidine-3-carboxamide] | 10 to 1000
13 | COC(=O)[C@H]1CC[C@H](Oc2ccncc2NC(=O)c2c(N)nn3cc(F)cnc23)CC1 [I-O-13, (1r,4)-methyl 4-((3-(2-amino-6-fluoropyrazolo[1,5-a]pyrimidine-3-carboxamido)pyridin-4-yl)oxy)cyclohexanecarboxylate] | 10 to 1000
14 | CCOc1ccncc1NC(=O)c1c(N)nn2cc(F)cnc12 [I-O-14, 2-amino-N-(4-ethoxypyridin-3-yl)-6-fluoropyrazolo[1,5-a]pyrimidine-3-carboxamide] | 10 to 1000
15 | Nc1nn2cc(F)cnc2c1C(=O)Nc1cnccc1O[C@H]1Cc2nccn2C1 [I-O-16, (S)-2-amino-N-(4-((6,7-dihydro-5H-pyrrolo[1,2-a]imidazol-6-yl)oxy)pyridin-3-yl)-6-fluoropyrazolo[1,5-a]pyrimidine-3-carboxamide] | 10 to 1000

Further lines, results first:

Row | Ki [nM] | Compound
16 | 10 to 1000 | CN(C)C(=O)[C@H]1CC[C@@H](Oc2ccncc2NC(=O)c2c(N)nn3cc(F)cnc23)CC1 [I-O-17, 2-amino-N-(4-(((1s,4s)-4-(dimethylcarbamoyl)cyclohexyl)oxy)pyridin-3-yl)-6-fluoropyrazolo[1,5-a]pyrimidine-3-carboxamide]
17 | 10 to 1000 | COC(=O)[C@H]1CC[C@@H](Oc2ccncc2NC(=O)c2c(N)nn3cc(F)cnc23)CC1 [I-O-18, (1s,4s)-methyl 4-((3-(2-amino-6-fluoropyrazolo[1,5-a]pyrimidine-3-carboxamido)pyridin-4-yl)oxy)cyclohexanecarboxylate]
18 | 10 to 1000 | CN1CCN(C(=O)[C@H]2CC[C@@H](Oc3ccncc3NC(=O)c3c(N)nn4cc(F)cnc34)CC2)CC1 [I-O-19, 2-amino-6-fluoro-N-(4-(((1s,4s)-4-(4-methylpiperazine-1-carbonyl)cyclohexyl)oxy)pyridin-3-yl)pyrazolo[1,5-a]pyrimidine-3-carboxamide]
19 | 10 to 1000 | CCC(C#N)c1cnc2c(C(=O)Nc3cnccc3OC)c(N)nn2c1 (stereo not drawn) [I-O-20, 2-amino-6-(1-cyanopropyl)-N-(4-methoxypyridin-3-yl)pyrazolo[1,5-a]pyrimidine-3-carboxamide]
20 | 10 to 1000 | COc1ccncc1NC(=O)c1c(N)nn2cc(C(C)C#N)cnc12 (stereo not drawn) [I-O-21, 2-amino-6-(1-cyanoethyl)-N-(4-methoxypyridin-3-yl)pyrazolo[1,5-a]pyrimidine-3-carboxamide]
21 | 10 to 1000 | CN1CCC(Oc2ccncc2NC(=O)c2c(N)nn3cc(CC#N)cnc23)CC1 [I-O-23, 2-amino-6-(cyanomethyl)-N-(4-((1-methylpiperidin-4-yl)oxy)pyridin-3-yl)pyrazolo[1,5-a]pyrimidine-3-carboxamide]
22 | < 10 | CN(C)CCOc1ccncc1NC(=O)c1c(N)nn2cc(CC#N)cnc12 [I-O-24, 2-amino-6-(cyanomethyl)-N-(4-(2-(dimethylamino)ethoxy)pyridin-3-yl)pyrazolo[1,5-a]pyrimidine-3-carboxamide]
23 | < 10 | N#CCc1cnc2c(C(=O)Nc3cnccc3Oc3ccccc3)c(N)nn2c1 [I-O-25, 2-amino-6-(cyanomethyl)-N-(4-phenoxypyridin-3-yl)pyrazolo[1,5-a]pyrimidine-3-carboxamide]
24 | < 10 | COc1ccncc1NC(=O)c1c(N)nn2cc(CC#N)cnc12 [I-O-26, 2-amino-6-(cyanomethyl)-N-(4-methoxypyridin-3-yl)pyrazolo[1,5-a]pyrimidine-3-carboxamide]
25 | < 10 | COc1cc(Cl)ncc1NC(=O)c1c(N)nn2cc(CC#N)cnc12 [I-O-27, 2-amino-N-(6-chloro-4-methoxypyridin-3-yl)-6-(cyanomethyl)pyrazolo[1,5-a]pyrimidine-3-carboxamide]
26 | < 10 | CCOc1ccncc1NC(=O)c1c(N)nn2cc(CC#N)cnc12 [I-O-28, 2-amino-6-(cyanomethyl)-N-(4-ethoxypyridin-3-yl)pyrazolo[1,5-a]pyrimidine-3-carboxamide]
27 | < 10 | COCCOc1ccncc1NC(=O)c1c(N)nn2cc(CC#N)cnc12 [I-O-29, 2-amino-6-(cyanomethyl)-N-(4-(2-methoxyethoxy)pyridin-3-yl)pyrazolo[1,5-a]pyrimidine-3-carboxamide]
